In patent US20260151370A1, “Nutritional composition for neurodegeneration and neurotrauma” (N.V. Nutricia, priority 2023, published 2026):

Tested on: PC12 neuronal cells
Assay: Neurite outgrowth in NGF-differentiated PC12 neuronal cell cultures (Calcein-AM/Hoechst imaging)
Assay type: cell-based
Experimental: In order to assess the effects of nutritional components on axonal outgrowth and dendritic arborization underlying functional brain connectivity, the effects of nutrient supplementation on neurite outgrowth parameters in PC12 pheochromocytoma cells was investigated. PC12 neuronal cell model is one of the most widely used cell models for the study of neuronal differentiation. PC12 pheochromocytoma cells were grown in DMEM (Gibco), supplemented with 10% fetal bovine serum (FBS), penicillin (100 units/ml), and streptomycin (100 μg/ml) (Gibco), under a humidified atmosphere with 95% air and 5% CO2 at 37° C. Cells were seeded onto a collagen (0.01 mg/ml) coated 96-well plates at a density of 5000 cells/well and after 24 hours supplemented with medium containing 20 ng/ml nerve growth factor (NGF) with or without the components as defined in the present and in the following examples. Cell cultures were incubated at 37° C. in 5% CO2 and medium was replaced every 2-3 days. DHA and EPA were resuspended in absolute ethanol and diluted 5 times in fetal bovine serum. Other compounds were dissolved in DMEM. All compounds were purchased from Sigma (Zwijndrecht, The Netherlands). Supplementation of cells was performed in 6-fold in 96 wells plates. Neurite outgrowth of these conditions was compared to non-supplemented cells. After 48 hours of nutrient supplementation, cell bodies and neurites were stained using Calcein-AM stain (0.2 μg/ml) (Invitrogen, batch #C3100MP) and the nuclei were counterstained using Hoechst stain (1.2 μg/ml) (Thermo Scientific, batch #62249) in 100 μl culture medium per well and incubated for 20 min at 37° C. Subsequently, FITC and DAPI images (9 images per well, 6 wells per condition) were taken using an ImageXpress Micro Confocal high content imaging system (Molecular Devices). Neurite length was quantified using the neurite outgrowth module in MetaXpress. Image analysis was carried out using the neurite outgrowth analysis module in MetaXpress (Molecular Devices). The measurements taken from each well included the number of nuclei and the mean neurite outgrowth (μm) per cell. The data was normalized to and expressed as a relative percentage of the plate-averaged value of the vehicle-treated control wells.

[1] = FIG. 1 plate: DHA 6.7 μM, EPA 10 μM, vitamin B2 1.25 μM, vitamin D3 0.25 μM, alone or combined, 48 hours, 20 ng/ml NGF
[2] = FIG. 9 first plate: B2 0.25 μM, D3 0.75 μM, PC 15 μM, BA 40 μM, alone or together with reference diet
[3] = FIG. 4 plate: total 20 μM choline from chol-Cl, PC or both
[4] = FIG. 8 plate: BA 200 μM, B2 0.25 μM, DHA 2.5 μM, D3 0.25 μM, PC 20 μM, alone or combined

| Molecule | observed mean neurite outgrowth, percentage relative to control (100%) [1] | observed mean neurite outgrowth, percentage relative to control (100%) [2] | neurite outgrowth compared to control [3] | observed mean neurite outgrowth, percentage relative to control (100%) (FIG. 5 plate: choline 20 μM (chol-Cl and/or PC), DHA 3.3 μM, B2 0.5 μM, D3 0.25 μM) | observed mean neurite outgrowth, percentage relative to control (100%) [4] | neurite outgrowth compared to control (FIG. 7 plate: BA 200 μM) | neurite outgrowth compared to control (FIG. 7 plate: BA 12.5, 25, 50, 100 and 200 μM) |
| --- | --- | --- | --- | --- | --- | --- | --- |
| Cc1cc2nc3c(=O)[nH]c(=O)nc-3n(C[C@H](O)[C@H](O)[C@H](O)CO)c2cc1C [vitamin B2, riboflavin] | increased neurite outgrowth | increased neurite outgrowth |  |  |  |  |  |
| phosphatidylcholine [PC] |  | increased neurite outgrowth | increases neurite outgrowth more than supplementation with 100 mole % chol-Cl | increased neurite outgrowth more than supplementation with 100 mole % chol-Cl | increased neurite outgrowth more than supplementation of vitamin B2 and D3 alone |  |  |
| C=C1CC[C@H](O)C/C1=C/C=C1\CCC[C@]2(C)[C@@H]([C@H](C)CCCC(C)C)CC[C@@H]12 [vitamin D3, cholecalciferol] | increased neurite outgrowth | increased neurite outgrowth |  |  |  |  |  |
| C[N+](C)(C)CCO.[Cl-] [chol-Cl, choline-chloride] |  |  | enhance neurite outgrowth |  |  |  |  |
| CCCC(=O)O [BA, butyric acid] |  | increased neurite outgrowth |  |  | increased neurite outgrowth more than supplementation of vitamin B2 and D3 alone | strongest effect on neurite outgrowth | increased neurite outgrowth in a dose-dependent manner |
